Like-named read-outs stand apart in the source and are kept apart here.
What was measured:
[1] = test system: 786-O-Hif-Luc cells (luciferase gene driven by multiple HIF responsive elements); assay: Luciferase Assay; assay type: cell-based; settings: 24 h, read-out: Mean Luciferease EC50
Experimental: A pool of infected cells were then selected against 2 μg/mL of puromycin (P8833, Sigma) for 10 days followed by limited dilution to select single clones.
Each concentration was tested in triplicate. After about 24 hours, luciferase activity was determined using ONE-Glo Luciferase Assay Reagent (E6110, Promega) following the manufacturer's recommended procedure. EC50 were calculated by using Dotmatics software.

[2] = test system: EPO and PGK1 mRNA in mouse kidney; assay: In vivo PK/PD study: mouse kidney mRNA levels by qRT-PCR; parameters: species or system SCID/Biege mice; settings: oral gavage three times at 12 hour intervals; 10, 30 or 100 mg/kg
Experimental: About 5×10^6 renal cell carcinoma 786-O tumor cells (ATCC® CRL-1932, VHL and HIF-1α null cell line) in PBS and Matrigel (1:1 in volume) were injected subcutaneously at the right flanks of SCID/Biege mice at 6-7 weeks of age for xenograft development. When the xenografts reached about 450 mm^3 in size, the tumor bearing mice were randomly divided into 4 groups (n=4). Plasma was collected prior to treatment by retro-orbital bleeding. […] All animals were sacrificed at 12 hours post last dose. Tumor, kidney, and plasma were collected from each animal. Total RNA was extracted from the tumors and kidneys. The mRNA levels of HIF-1α, HIF-2α and their respective target genes were determined by qRT-PCR (FIG. 1).

[3] = test system: renal cell carcinoma 786-O xenograft; assay: In vivo efficacy study, 786-O xenograft; parameters: species or system SCID/Biege mice; settings: all treatment groups; t-Test; Compound 15 20 days, Compound 163 28 days
human VEGFA = assay: Plasma human VEGFA level of 786-O xenograft bearing mice; assay type: in vivo; settings: 10, 30 and 100 mg/kg, three times at 12 hour intervals, prior to vs 12 h post treatment, FIG. 5
[4] = test system: VEGFA concentration in medium of 786-O cells; assay: VEGF ELISA Assay; assay type: cell-based; settings: Homo sapiens
Experimental: Each concentration had duplicated wells. About 20 hours later, medium was removed by suction and each well was supplied with 180 μL of growth medium. About 20 μl freshly-made 10× compound stocks were added to each well. […] The EC50 was calculated by GraphPad Prism using the dose-response-inhibition (four parameter) equation. The cell seeded plate was then subjected to CellTiter-Glo luminescence cell viability assay (Promega) by adding 50 μL of Celltiter Glo reagent into each well and shaking the plate for 8 minutes at 550 rpm (Thermomixer R, Eppendorf) then read luminescence signal in plate reader (3 second delay, 0.5 second/well integration time, Synergy 2 multi Detection Microplate reader) immediately.

[5] = 786-O-Hif-Luc cells, about 24 hours
[6] = 786-0, 786-O cells, read-out: Mean VEGF ELISA EC50

| Structure (SMILES) | EC50 [1, 5] [nM] | EC50 [4, 6] [nM] | other results |
| --- | --- | --- | --- |
| N#Cc1cc(F)cc(Oc2ccc(S(=O)(=O)C(F)F)c3c2CC(F)(F)[C@H]3O)c1 [Compound 15, 3-[(1S)-7-(difluoromethylsulfonyl)-2,2-difluoro-1-hydroxy-indan-4-yl]oxy-5-fluoro-benzonitrile] | 7 |  | Mouse kidney EPO mRNA level (HIF-2α specifically regulated gene) [2]: reduced; Mouse kidney PGK1 mRNA level (HIF-1α targeted gene) [2]: remained unchanged; Tumor size versus vehicle [3]: statistically significant reduction; plasma level of human VEGFA (human VEGFA): reduced |
| O=S(=O)(c1ccc(Oc2ccc(F)c(F)c2)c2c1[C@H](O)C(F)(F)C2)C(F)(F)F [Compound 233, (S)-4-(3,4-Difluorophenoxy)-2,2-difluoro-7-((trifluoromethyl)sulfonyl)-2,3-dihydro-1H-inden-1-ol] | 13 | 15 |  |
| CS(=O)(=O)c1ccc(Oc2cc(Cl)cc(C#N)c2)c2c1[C@H](O)C(F)(F)C2 [Compound 234, (S)-3-Chloro-5-((2,2-difluoro-1-hydroxy-7-(methylsulfonyl)-2,3-dihydro-1H-inden-4-yl)oxy)benzonitrile] |  |  | EC50 [1]: 41 nM; EC50 ([4]; 786-0, read-out: Mean VEGF ELISA EC50): 50 nM |
| N#Cc1cccc(Oc2ccc(S(=O)(=O)C(F)F)c3c2CC(F)(F)[C@H]3O)c1 [Compound 236, (S)-3-((7-((difluoromethyl)sulfonyl)-2,2-difluoro-1-hydroxy-2,3-dihydro-1H-inden-4-yl)oxy)benzonitrile] | 11 | 16 |  |
| N#Cc1cc(Oc2ccc(S(=O)(=O)C(F)(F)F)c3c2CC(F)(F)[C@H]3O)c[n+]([O-])c1 [Compound 267, (S)-3-cyano-5-((2,2-difluoro-1-hydroxy-7-((trifluoromethyl)sulfonyl)-2,3-dihydro-1H-inden-4-yl)oxy)pyridine 1-oxide] | 160 | 830 |  |
| N#Cc1cc(F)cc(Oc2ccc(C(F)(F)F)c3c2CC(F)(F)[C@H]3O)c1 [Compound 273, 3-[(1S)-2,2-Difluoro-1-hydroxy-7-(trifluoromethyl)indan-4-yl]oxy-5-fluoro-benzonitrile] | 4.6 | 6.2 |  |
| CS(=O)(=O)c1ccc(Oc2cc(F)cc(C#N)c2)c2c1[C@H](O)C(F)(F)[C@@H]2F [Compound 292, 3-fluoro-5-[(1S,3R)-2,2,3-trifluoro-1-hydroxy-7-methylsulfonyl-indan-4-yl]oxy-benzonitrile] | 3.1 | 6.2 |  |
| N#Cc1cncc(Oc2ccc(C(F)(F)F)c3c2CC(F)(F)[C@H]3O)c1 [Compound 303, 5-[(1S)-2,2-difluoro-1-hydroxy-7-(trifluoromethyl)indan-4-yl]oxypyridine-3-carbonitrile] | 35 | 64 |  |
| CS(=O)(=O)c1ccc(Oc2cc(F)cc(Br)c2)c2c1[C@H](O)C(F)(F)C2 [Compound 304, (S)-4-(3-bromo-5-fluorophenoxy)-2,2-difluoro-7-(methylsulfonyl)-2,3-dihydro-1H-inden-1-ol] | 22 | 62 |  |
| O=S(=O)(c1ccc(Oc2cncc(F)c2)c2c1[C@H](O)C(F)(F)C2)C(F)(F)F [Compound 309, (S)-2,2-difluoro-4-((5-fluoropyridin-3-yl)oxy)-7-((trifluoromethyl)sulfonyl)-2,3-dihydro-1H-inden-1-ol] | 9 | 26 |  |
| O=S(=O)(c1ccc(Oc2cc(F)c[n+]([O-])c2)c2c1[C@H](O)C(F)(F)C2)C(F)(F)F [Compound 310, (S)-3-((2,2-difluoro-1-hydroxy-7-((trifluoromethyl)sulfonyl)-2,3-dihydro-1H-inden-4-yl)oxonio)-5-fluoropyridine 1-oxide] | 110 | 140 |  |
| CS(=O)(=O)c1ccc(Oc2cncc(C#N)c2)c2c1[C@H](O)C(F)(F)C2 [Compound 325, (S)-5-((2,2-Difluoro-1-hydroxy-7-(methylsulfonyl)-2,3-dihydro-1H-inden-4-yl)oxy)nicotinonitrile] | 490 | 150 |  |
| CS(=O)(=O)c1ccc(Oc2cncc(C#N)c2)c2c1[C@H](O)C(F)(F)[C@@H]2F [Compound 342, 5-(((1S,3R)-2,2,3-trifluoro-1-hydroxy-7-(methylsulfonyl)-2,3-dihydro-1H-inden-4-yl)oxy)nicotinonitrile] | 91 | 52 |  |

Source: patent US10597366B2, “Aryl ethers and uses thereof” (Peloton Therapeutics, Inc., priority 2013, dated 2020)
